Four compounds from patent US11247971B2, “Small molecule inhibitors of lactate dehydrogenase and methods of use thereof” (THE UNITED STATES OF AMERICA, AS REPRESENTED BY THE …, priority 2014, dated 2022) can be followed below.

One data set has as its target Human LDHA (Homo sapiens (Human), UniProt P00338). Description: human LDHA primary biochemical assay. Conditions: read-out: Inhibitory activity IC50, assay of Example 1, activity level classes.
A short description of data set [1]: pharmacokinetics after oral administration in mice. In kind it is in vivo. Conditions: male CD1 mice, oral 10 mg/kg.
A further data set relates to MiaPaCa2 cells. Nature of the data set: cell-based HT Lactate assay, colorimetric/fluorometric detection (inhibition of lactate production). Conditions: class symbols. The protocol: Cell-based HT Lactate assay is a miniaturized Biovision Lactate Colorimetric/Fluorometric Assay Kit (Cat #K607-100). The assay is roughly a 3.5 hour assay run in a 1536 plate format. Cell number optimization should be run for each cell line to achieve an optimal number in which lactate production equals roughly 90% of the standard curve range. Cell number per well optimization has been performed with the following cell lines: MiaPaCa2—500 cells/well, SNU398—500 cells/well, and P493—500 cells/well.
The lactate activity in Table 8 is represented by 0 to 3 pluses as follows: […]; ++1-10 μM; +10-57 μM; and −>57 μM.

As usually defined, the IC50 is the concentration needed to halve the response being measured. Broadly, the Cmax is the peak of the concentration-time curve.

Description for Human LDHA: This example describes a human LDHA primary biochemical assay employed in the characterization of a compound of formula (I) in an embodiment of the invention.
Test compounds were placed in a Greiner Bio-One (Monroe, N.C.) 1536-well black solid bottom assay plate. 200 millimolar (mM) Tris HCl, pH 7.4, 100 micromolar (μM) EDTA and 0.01% TWEEN-20™, final concentration, was used as the assay buffer. The LDHA reagent was 2 nanomolar (nM) Human LDHA (Meridian Life Science, Inc., Memphis, Tenn.), final concentration, in assay buffer. The substrate reagent was 0.06 mM NADH and 0.2 mM sodium pyruvate, final concentration, in assay buffer. […] The inhibition of LDHA activity was measured by fluorescence emission.

Regarding `NS(=O)(=O)c1ccc(Cc2c(-c3ccc(F)c(OC4CC4)c3)nn(-c3nc(C(=O)O)cs3)c2CC2CC2)cc1F` [Compound 471, 2-(3-(3-cyclopropoxy-4-fluorophenyl)-5-(cyclopropylmethyl)-4-(3-fluoro-4-sulfamoylbenzyl)-1H-pyrazol-1-yl)thiazole-4-carboxylic acid], the IC50 on Human LDHA was below 100 nM.

With `NS(=O)(=O)c1ccc(Cc2c(-c3cccc(-c4ccccc4)c3)nn(-c3nc(C(=O)O)cs3)c2C(F)(F)F)cc1` [Compound 42, 2-(3-([1,1′-biphenyl]-3-yl)-4-(4-sulfamoylbenzyl)-5-(trifluoromethyl)-1H-pyrazol-1-yl)thiazole-4-carboxylic acid], the “F (fraction of the dose that enters systemic circulation)” value in data set [1] stood at 34%.

On to “2-(3-(3′-amino-[1,1′-biphenyl]-3-yl)-4-(4-sulfamoylbenzyl)-1H-pyrazol-1-yl)thiazole-4-carboxylic acid [Compound 523]”, for which the values for the IC50 with MiaPaCa2 cells and on Human LDHA were 1000 to 10000 nM and 100 to 1000 nM, respectively.

In the case of `CCOC(=O)c1csc(-n2nc(-c3cccc(-c4ccccc4)c3)c(Cc3ccc(S(N)(=O)=O)cc3)c2C(F)(F)F)n1` [Compound 141, ethyl 2-(3-([1,1′-bipheny]-3-yl)-4-(4-sulfamoylbenzyl)-5-(trifluoromethyl)-1H-pyrazol-1-yl)thiazole-4-carboxylate], the “F (fraction of the dose that enters systemic circulation)” value in data set [1] is 69%. Besides, in data set [1] (plasma, LC/MS/MS), the AUClast was 2409 ng·h/mL and the Cmax worked out at 851 ng/mL.
